Source: patent US20020151876A1, “Devices and methods for management of bone density” (priority 2001, published 2002)

Experiments:
rabbit model = test: local response to subcutaneous injection, skin reaction scoring (erythema, eschar, edema, necrosis); type: in vivo
Experimental: A test was performed to evaluate the local response to pamidronate sodium following subcutaneous injection into a rabbit model.
The pamidronate sodium was reconstituted with 10 mL of phosphate buffered saline (PBS) to achieve a concentration of 9 mg/mL. The 9 mg/mL. solution was then diluted to achieve a concentration of 0.9 mg/mL.
On the day of the test, the fur on the back of each animal was removed on both sides of the spinal column with electric clippers. A 0.1 mL portion of two concentrations of the sample solution was injected subcutaneously at each of three sites along the spinal column of each of two rabbits. A 0.1 mL portion of PBS was injected subcutaneously at three sites along the other side of the spinal column of the same two rabbits. […] Scoring was at 24 hours, 48 hours, and 72 hours. All of the animals were observed daily for signs of ill health.
The injection sites were examined and scored for any tissue reactions, with results scored according to Table 1.
The average erythema and edema scores for each test article and controls are determined at each scoring interval (24, 48, and 72 hours) for each rabbit.

osteoblast-like cells = conditions: cited from earlier work
patients = conditions: long-term use; cited from earlier work
tumor burden in bone = conditions: two separate studies, relatively small number of patients; cited from earlier work
[1] = tested on: patients with Crohn's disease; conditions: cited from earlier work

## NCCC(O)(P(=O)(O)O)P(=O)(O)O [pamidronate sodium]
Rabbit model; any of the 0.9 mg/mL sites
  injection site reaction (in words): no evidence of erythema or edema
Rabbit model; one 9 mg/mL site on one rabbit, 48 and 72 hours
  injection site reaction (in words): Slight erythema
Rabbit model; one of the 9 mg/mL sites, 24 hours, both animals
  injection site reaction (in words): Slight erythema
Rabbit model; rabbits, throughout the test period (72 hours)
  signs of ill health, daily observation: remained healthy

## NC(=O)N1c2ccccc2C=Cc2ccccc21 [carbamazepine]
osteoblast-like cells
  proliferation of osteoblast-like cells: directly suppress proliferation
patients
  bone mass in patients: decrease bone mass

## O=P(O)(O)C(Cl)(Cl)P(=O)(O)O [clodronate]
Tumor burden in bone
  tumor burden in bone: decreases tumor burden in bone

## O=C1NC(=O)C(c2ccccc2)(c2ccccc2)N1 [phenytoin]
osteoblast-like cells
  proliferation of osteoblast-like cells: directly suppress proliferation
patients
  bone mass in patients: decrease bone mass

## NCCCC(O)(P(=O)(O)O)P(=O)(O)O [alendronate]
[1]
  safety and tolerability: safe and well tolerated
